Experimental data reported in patent publication US8263607B2, “1-substituted tetrahydroisoquinoline compound” (Astellas Pharma Inc., priority 2007, dated 2012).

Columns and labels:
[1] = test system: mechanical allodynia in L5/L6 spinal nerve-ligated rats; test: Neuropathic pain model (antiallodynic effects in L5/L6 spinal nerve-ligated rats, von Frey hair test); type: in vivo, rats (SD, male); details: 30 to 60 min before measurement, response threshold, ipsilateral 0% / contralateral 100% of vehicle group
Method: The antiallodynic effects of the compounds of the present invention were confirmed by assessing the analgesic action in L5/L6 spinal nerve-ligated rats. The assessment was carried out by the method of Kim and Chung (Pain 50, 355-363, 1992) with some modifications.
Under pentobarbital anesthesia, the left L5 and L6 spinal nerves of male SD rats (5-6 weeks old) were tightly ligated with silk thread. For the assessment of analgesic action, the von Frey hair test was adopted. That is, the animal's hind paw pad was pricked with hair and the lowest strength of hair for limb withdrawal response was designated as a response threshold (log gram) to mechanical stimulation. […] On the day before the assessment of the test compound, the response threshold before administration of the test compound was measured. The animals were divided into 4 to 5 groups such that mean value differences of response thresholds between groups before administration of the test compound and within-group variation become small. In the assessment of the test compound, the response threshold after administration of the test compound was measured. The test compound was orally administered 30 to 60 minutes before the measurement of the response threshold. […] Recovery rate(%)={(mean of response threshold in test compound-treated group)−(mean of response threshold of ipsilateral paw in vehicle-treated group)}/{(mean of response threshold of contralateral paw in the vehicle-treated group)−(mean of response threshold of ipsilateral paw in the vehicle-treated group)}×100

[2] = test system: formalin-induced pain behaviors; test: Nociceptive pain model (mouse formalin test); type: in vivo, mice (ddY, male); details: 100 mg/kg oral, 30 min before formalin; pain behaviors 15 to 25 min after formalin, vs vehicle
Method: A mouse formalin test was carried out by a modification of the method as described in the literature [Murakami et al., Eur. J. Pharmacol. 419: 175-181 (2001)]. When 20 μL of 2.0% formalin was subcutaneously administered to the paw pads of mice (ddY, male, 5 weeks old), pain behaviors (limb withdrawal and licking behaviors) were induced in the treated animal limbs. From 15 to 25 minutes after the administration of formalin, the time taken for the onset of pain behaviors was measured to thereby evaluate the inhibitory action of the test compound on pain behaviors of animals. The test compound was orally given 30 minutes prior to the administration of formalin. […] Inhibition rate(%)=100−(mean onset time of pain behaviors in test compound-treated group)/(mean onset time of pain behaviors in vehicle-treated group)×100

[3] = test system: CRD-induced abdominal flexion reflex behaviors; test: Abdominal pain model (CRD-induced abdominal pain in rats); type: in vivo, rat (Wistar, male); details: 10 mg/kg oral, 30 min before distension; abdominal flexion reflex behaviors at internal pressure of 45 mmHg
Method: Improving effects of the compounds of the present invention on digestive tract pain were confirmed by assay of CRD-induced abdominal pain in rats. The rat CRD-induced abdominal pain assay was carried out by a modification of the method described in the literature [Neurogastroenterol. Motil. 15: 363-369 (2003)]. When stimulation of constant internal pressure is applied to the colorectum of an animal by inflation of a 6-cm long balloon inserted into the anus of the rat (Wistar, male, 250-350 g), abdominal flexion reflex behaviors are induced due to abdominal pain. A frequency of reflex behaviors occurring during distension stimulation of 5 minutes was counted to estimate an abdominal pain-inhibitory action of the test compound. The test compound was orally administered 30 minutes before the initiation of distension stimulation. Estimation of the test compound was made by calculating an inhibition rate (%) of abdominal flexion reflex behaviors on the vehicle-treated group.

[4] = test system: loperamide-induced bead transit delay; test: Spastic constipation model (loperamide-induced colorectal bead transit delay test in mice); type: in vivo, mouse (ddY, male); details: 3 mg/kg oral, concurrently with loperamide 0.3 mg/kg s.c.; bead excretion time
Method: A 3-mm diameter glass bead is deeply inserted at a depth of 2 cm into the anus of the mouse (ddY, male, 6 weeks old), and the time taken for excretion of the bead is measured. […] With improving effects on the loperamide-induced bead transit delay, a bowel movement-improving action of the test compound on spastic constipation was evaluated. The test compound was orally administered concurrently with administration of loperamide (30 minutes before the insertion of the bead). The assessment of the test compound was made from calculation of an improvement rate in the bead excretion time of the test compound-treated/loperamide-treated group, by taking the bead excretion time of the non-test compound treated/non-loperamide treated (vehicle-treated/vehicle-treated) group as 100%, and by taking the bead excretion time of the non-test compound treated/loperamide-treated (vehicle-treated/loperamide-treated) group as 0%.

[5] = test system: mechanical allodynia in L5/L6 spinal nerve-ligated rats; details: known; cited from earlier work

Row | Compound | Recovery rate (%) (dose) ([1]; 30 mg/kg oral) | Inhibition rate [2] | Inhibition rate [3] | Inhibition rate [4] | Recovery rate (%) (dose) ([1]; 10 mg/kg oral) | recovery of mechanical allodynia with treatment of morphine [5]
1 | O=C(CNCC1(O)CCCCC1)N1CCc2ccccc2[C@@H]1C1CCCCC1 [Example 1, 1-[({2-[(1S)-1-cyclohexyl-3,4-dihydroisoquinolin-2(1H)-yl]-2-oxoethyl}amino)methyl]cyclohexanol] | 95% | 52% | – | – | – | –
2 | COC[C@@H](O)CNCC(=O)N1CCc2ccccc2[C@@H]1C1CCCCC1 [Example 157] | 97% | 52% | 59% | 40% | – | –
3 | COc1ccc2c(c1)CCN(C(=O)CNCC1(O)CCCCC1)[C@H]2C(C)C [Example 415] | – | – | 60% | 88% | – | –
4 | COC[C@@H](O)CNCC(=O)N1CCc2ccccc2[C@@H]1Cc1ccccc1C(F)(F)F [Example 433] | – | 60% | 43% | 73% | 80% | –
5 | COc1cccc2c1[C@H](c1ccccc1)N(C(=O)CNC[C@@H](C)O)CC2 [Example 435] | – | – | 46% | 67% | – | –
6 | CCc1ccc2c(c1)[C@H](COC)N(C(=O)CNCC1(O)CCCCC1)CC2 [Example 436] | – | 55% | 56% | 59% | 156% | –
7 | COc1cccc2c1[C@H](c1ccccc1)N(C(=O)CNC[C@@H](C)O)CC2 [Example 575] | – | 77% | – | – | 83% | –
8 | CN1CC[C@]23c4c5ccc(O)c4O[C@H]2[C@@H](O)C=C[C@H]3[C@H]1C5 [morphine] | – | – | – | – | – | only a partial recovery
